Results taken from patent publication US20220009906A1, “ISOINDOLIN-1-ONE DERIVATIVES USEFUL AS GRK2 INHIBITORS” (priority 2020, published 2022).

What follows are compounds tested against T1, GRK2 (Homo sapiens, UniProt P25098) (assay: hGRK2 LANCE Ultra In Vitro Assay). Details: Biological Example 1 GRK2 Lancer IC50 (μM), 10 nM GRK2; 30 or 600 μM ATP (not stated which); multiple measurements listed individually.
T1 sequence (P25098 1-689): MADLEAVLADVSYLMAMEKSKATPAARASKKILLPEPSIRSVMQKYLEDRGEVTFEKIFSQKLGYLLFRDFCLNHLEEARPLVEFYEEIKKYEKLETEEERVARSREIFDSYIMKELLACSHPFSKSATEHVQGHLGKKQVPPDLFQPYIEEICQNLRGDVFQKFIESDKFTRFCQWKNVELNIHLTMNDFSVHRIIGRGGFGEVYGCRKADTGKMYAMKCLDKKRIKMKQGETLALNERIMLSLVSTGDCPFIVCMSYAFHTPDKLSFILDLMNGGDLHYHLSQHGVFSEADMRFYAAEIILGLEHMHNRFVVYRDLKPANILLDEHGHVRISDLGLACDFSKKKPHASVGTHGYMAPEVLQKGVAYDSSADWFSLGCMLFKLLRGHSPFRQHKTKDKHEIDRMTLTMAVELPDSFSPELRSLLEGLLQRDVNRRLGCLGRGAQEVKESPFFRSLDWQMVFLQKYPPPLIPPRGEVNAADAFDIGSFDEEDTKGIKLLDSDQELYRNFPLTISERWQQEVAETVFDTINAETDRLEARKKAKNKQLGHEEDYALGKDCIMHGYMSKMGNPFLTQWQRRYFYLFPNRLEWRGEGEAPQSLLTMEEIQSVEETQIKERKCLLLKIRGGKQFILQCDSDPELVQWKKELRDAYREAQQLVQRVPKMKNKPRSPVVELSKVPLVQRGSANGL
Type: biochemical
Description: hGRK2 LANCE Ultra In Vitro Assay
G-protein coupled receptor kinases (GR Kinases) desensitize activated G-protein coupled receptors (GPCRs), by phosphorylation of cytoplasmic loops or carboxyl-terminal tails of GPCRs. GRK2 is one of the 6 different GR kinases and is implicated in heart failure and diabetes.
This assay is sensitive and requires as low as 10 nM enzyme, in a total volume of 10 μL. In addition, the ATP concentration can be varied over a broad range, without interfering with the assay or changing the assay condition. […] Testing inhibitors routinely at both high and low ATP concentrations also enables identification of potential non-ATP competitive inhibitors.
Paroxetine was used as the reference compound in this assay.
Test compounds were dissolved in DMSO at 1 mM and were 3-fold serial diluted. The compound DMSO solutions were then added (100 nL) into a plate well using an acoustic dispenser. To each well was then added 20 nM GRK2 (5 μL) in assay buffer (20 mM HEPES, pH 7.5, 10 mM MgCl2, 0.001% Tween-20®). The plate was sealed and centrifuged at 1000 rpm for 1 min. The plate and wells containing a mixture of GRK2 and test compound were incubated at ambient temperature for 30 min (prior to initializing the enzymatic reaction).
Enzyme reactions were initiated by the addition of 4.9 μL Substrates/Eu-Ab mix to each well. […] Final concentrations of reagents in the assays were as follows: 20 mM HEPES, pH 7.5; 10 mM MgCl2; 0.001% Tween-20® (w/v); 30 or 600 μM ATP; 200 nM ULight-peptide; 4 nM Eu-Ab; 10 nM GRK2; and 1% DMSO.
The plates were sealed and centrifuged at 1000 rpm for 1 min. For reactions at low ATP concentration (30 μM), reaction mixtures were incubated at ambient temperature for 120 min. For reactions at high ATP concentration (600 μM), reaction mixtures were incubated at ambient temperature for 60 min.
The enzyme reactions were quenched by addition of 10 μL of 12 mM EDTA in 1× LANCE detection solution to each well. The plates were then incubated at ambient temperature for 30 min. Time-resolved fluorescence signal of reactions were read on an EnVision or PHERAstar plate reader with the following parameters: Excitation wavelength=337 nm; emission wavelength (donor)=620 nm; emission wavelength (acceptor)=665 nm.
The raw HTRF data were converted to % active as follows:
% active=(sample−NC)/(PC−NC)*100
where NC is the mean of negative control (reactions without GRK2), and PC is the mean of positive control (reactions with GRK2 but without inhibitor). IC50 values were determined from a 4-parameter fit, using the following equation:
Y=Bottom+(Top−Bottom)/(1+10^((Log IC50−X)*Hill slope))
where X=log10 of the compound concentration.
With `COc1cccc(CN2C(=O)c3cc(-c4cn[nH]c4)ccc3C2CC(=O)O)c1` (stereo not drawn) [Compound 61, 2-(2-(3-Methoxybenzyl)-3-oxo-5-(1H-pyrazol-4-yl)isoindolin-1-yl)acetic acid] the IC50 was 0.012 µM. For `COc1cccc(C(COCC(N)=O)N2Cc3ccc(-c4cn[nH]c4)cc3C2=O)c1` (stereo not drawn) [Compound 62, 2-(2-(3-Methoxyphenyl)-2-(1-oxo-6-(1H-pyrazol-4-yl)isoindolin-2-yl)ethoxy)acetamide], the IC50 was 0.007 µM. `COc1cccc(C(COCCO)N2Cc3ccc(-c4cn[nH]c4)cc3C2=O)c1` (stereo not drawn) [Compound 63, 2-(2-(2-Hydroxyethoxy)-1-(3-methoxyphenyl)ethyl)-6-(1H-pyrazol-4-yl)isoindolin-1-one] showed an IC50 of 0.008 µM. `COc1cccc(C(CO)N2Cc3ccc(-c4ccnc(N)n4)cc3C2=O)c1` (stereo not drawn) [Compound 64, 6-(2-aminopyrimidin-4-yl)-2-(2-hydroxy-1-(3-methoxyphenyl)ethyl)isoindolin-1-one] showed an IC50 of 0.047 µM. `CCOc1cccc(CN2C(=O)c3cc(-c4cn[nH]c4)ccc3C2CC#N)c1` (stereo not drawn) [Compound 65, 2-(2-(3-ethoxybenzyl)-3-oxo-5-(1H-pyrazol-4-yl)isoindolin-1-yl)acetonitrile] showed an IC50 of 0.039 µM. `COc1cccc(CN2Cc3ccc(-c4ccncc4)cc3C2=O)c1` [Compound 66] gave an IC50 of 0.023 µM. `CC(C)Oc1cccc(CN2Cc3ccc(-c4cn[nH]c4)cc3C2=O)c1` [Compound 69, 2-(3-Isopropoxybenzyl)-6-(1H-pyrazol-4-yl)isoindolin-1-one] showed an IC50 of 0.006 µM. `COc1cccc(C(C(=O)O)N2Cc3ccc(-c4cn[nH]c4)cc3C2=O)c1` (stereo not drawn) [Compound 71] was tested, and the IC50 was 0.815 µM. Compound `COC(=O)[C@H](c1cccc(OC)c1)N1Cc2ccc(-c3cn[nH]c3)cc2C1=O` [Compound 72] has an IC50 of 0.13 µM. `CCOc1cccc([C@H](C(=O)OC)N2Cc3ccc(-c4cn[nH]c4)cc3C2=O)c1` [Compound 73] gave an IC50 of 1.39 µM. For `CCOc1cccc([C@H](C(=O)O)N2Cc3ccc(-c4cn[nH]c4)cc3C2=O)c1` [Compound 74], the IC50 was 4.2 µM. `COc1cccc(CN2C(=O)c3cc(-c4cn[nH]c4)ccc3C23CCOC3)c1` (stereo not drawn) [Compound 75, 2′-(3-methoxybenzyl)-5′-(1H-pyrazol-4-yl)-4,5-dihydro-2H-spiro[furan-3,1′-isoindolin]-3′-one] gave an IC50 of 0.007 µM. For `CCOc1cccc([C@H](C(=O)OC)N2Cc3ccc(-c4ccncc4)cc3C2=O)c1` [Compound 76], the IC50 was greater than 20 µM. `CCOc1cccc(C(C(=O)O)N2Cc3ccc(-c4ccncc4)cc3C2=O)c1` (stereo not drawn) [Compound 77] showed an IC50 greater than 20 µM. For `COc1cccc(C(CO)N2C(=O)c3cc(-c4cn[nH]c4)ccc3C23CC=CC3)c1` (stereo not drawn) [Compound 78, 2′-(2-hydroxy-1-(3-methoxyphenyl)ethyl)-5′-(1H-pyrazol-4-yl)spiro[cyclopentane-1,1′-isoindolin]-3-en-3′-one], the IC50 was 0.06 µM. Compound `COc1cccc(C(CO)N2C(=O)c3cc(-c4cn[nH]c4)ccc3C23CCCC3)c1` (stereo not drawn) [Compound 79, 2′-(2-hydroxy-1-(3-methoxyphenyl)ethyl)-5′-(1H-pyrazol-4-yl)spiro[cyclopentane-1,1′-isoindolin]-3′-one] has an IC50 of 0.03 µM. `COc1cccc(C(CN(C)C)N2Cc3ccc(-c4cn[nH]c4)cc3C2=O)c1` (stereo not drawn) [Compound 80, 2-(2-(dimethylamino)-1-(3-methoxyphenyl)ethyl)-6-(1H-pyrazol-4-yl)isoindolin-1-one] showed an IC50 of 0.044 µM. `COc1cccc(CN2C(=O)c3cc(-c4cn[nH]c4)ccc3C23CCCCC3)c1` [Compound 81, 2′-(3-methoxybenzyl)-5′-(1H-pyrazol-4-yl)spiro[cyclohexane-1,1′-isoindolin]-3′-one] was tested, and the IC50 was 0.011 µM. `COc1cccc(CN2C(=O)c3cc(-c4cn[nH]c4)ccc3C23CCOCC3)c1` [Compound 82, 2-(3-methoxybenzyl)-5-(1H-pyrazol-4-yl)-2′,3′,5′,6′-tetrahydrospiro[isoindoline-1,4′-pyran]-3-one] showed an IC50 of 0.007 µM. With `COc1cccc(C(CO)N2Cc3ccc(-c4cccnc4)cc3C2=O)c1` (stereo not drawn) [Compound 83, 2-(2-hydroxy-1-(3-methoxyphenyl)ethyl)-6-(pyridin-3-yl)isoindolin-1-one] the IC50 was 0.024 µM. `COc1cccc(C(Cc2nnn[nH]2)N2Cc3ccc(-c4cn[nH]c4)cc3C2=O)c1` (stereo not drawn) [Compound 84] was tested, and the IC50 was 0.167 µM. With `O=C1c2cc(-c3cn[nH]c3)ccc2CN1Cc1cccc(OCc2nn[nH]n2)c1` [Compound 88, 2-(3-((2H-Tetrazol-5-yl)methoxy)benzyl)-6-(1H-pyrazol-4-yl)isoindolin-1-one] the IC50 was 0.029 µM. Compound `COc1cccc(CN2C(=O)c3cc(-c4cn[nH]c4)ccc3C23CCc2c(O)cccc23)c1` (stereo not drawn) [Compound 89, 4-hydroxy-2′-(3-methoxybenzyl)-5′-(1H-pyrazol-4-yl)-2,3-dihydrospiro[indene-1,1′-isoindolin]-3′-one] has an IC50 of 0.144 µM. With `O=C1c2cc(-c3cn[nH]c3)ccc2CN1Cc1cccc(OC2CCOC2)c1` (stereo not drawn) [Compound 90] the IC50 was 0.137 µM. With `O=C1c2cc(-c3cn[nH]c3)ccc2CN1Cc1cccc(OC2COC2)c1` [Compound 91] the IC50 was 0.116 µM. For `COc1cccc(C(C(=O)c2ccccc2)N2Cc3ccc(-c4cn[nH]c4)cc3C2=O)c1` (stereo not drawn) [Compound 92, 2-(1-(3-methoxyphenyl)-2-oxo-2-phenylethyl)-6-(1H-pyrazol-4-yl)isoindolin-1-one], the IC50 was 5.01 µM. `COc1cccc(CN2C(=O)c3cc(-c4cn[nH]c4)ccc3C2Cc2nn[nH]n2)c1` (stereo not drawn) [Compound 93, 3-((2H-tetrazol-5-yl)methyl)-2-(3-methoxybenzyl)-6-(1H-pyrazol-4-yl)isoindolin-1-one] gave an IC50 of 0.02 µM. `COc1cccc(C(c2nn[nH]n2)N2Cc3ccc(-c4cn[nH]c4)cc3C2=O)c1` (stereo not drawn) [Compound 94, 2-((3-methoxyphenyl)(2H-tetrazol-5-yl)methyl)-6-(1H-pyrazol-4-yl)isoindolin-1-one] was tested, and the IC50 was 0.652 µM. Work on `COc1cccc([C@@H](C2CC2)N2Cc3ccc(-c4cn[nH]c4)cc3C2=O)c1` [Compound 96] yielded an IC50 of 0.012 µM. Compound `COc1cccc(C(CC(=O)O)N2Cc3ccc(-c4cn[nH]c4)cc3C2=O)c1` (stereo not drawn) [Compound 100, 3-(3-methoxyphenyl)-3-(1-oxo-6-(1H-pyrazol-4-yl)isoindolin-2-yl)propanoic acid] has an IC50 of 6.24 µM. For `COc1cccc(CN2C(=O)c3cc(-c4cn[nH]c4)ccc3C23CCC(O)C3O)c1` (stereo not drawn) [Compound 102, 2,3-dihydroxy-2′-(3-methoxybenzyl)-5′-(1H-pyrazol-4-yl)spiro[cyclopentane-1,1′-isoindolin]-3′-one], the IC50 was 0.006 µM. With `O=C1c2cc(-c3cn[nH]c3)ccc2CN1Cc1cccc(Oc2ccccc2)c1` [Compound 103] the IC50 was 0.033 µM. `CC(c1cccc(Oc2ccccc2)c1)N1Cc2ccc(-c3cn[nH]c3)cc2C1=O` (stereo not drawn) [Compound 104] showed an IC50 greater than 11 µM. `COc1ccnc(CN2Cc3ccc(-c4cn[nH]c4)cc3C2=O)c1` [Compound 105] showed an IC50 of 0.071 µM. Compound `O=C1c2cc(-c3ccncn3)ccc2CN1Cc1cccc(Oc2ccccc2)c1` [Compound 106] has an IC50 of 0.419 µM. With `COc1cccc(CN2C(=O)c3cc(-c4cn[nH]c4)ccc3C23CCC(C(=O)O)C3)c1` (stereo not drawn) [Compound 107, 2′-(3-methoxybenzyl)-3′-oxo-5′-(1H-pyrazol-4-yl)spiro[cyclopentane-1,1′-isoindoline]-3-carboxylic acid] the IC50 was 0.005 µM.
